The results in this text go back to US10370412B2, “Beta-hairpin peptidomimetics” (Polyphor AG, priority 2013, dated 2019).

For the data set, the system named is human red blood cells (hRBC). The format is cell-based. The settings on record: red cells of human, 1 h. As to the method:
The peptides were tested for their hemolytic activity against human red blood cells (hRBC). Fresh hRBC were washed three times with phosphate buffered saline (PBS) and centrifuged for 10 min at 2000×g. Compounds (100 μg/ml) were incubated with 20% hRBC (v/v) for 1 h at 37° C. and shaking at 300 rpm. The final erythrocyte concentration was approximately 0.9×10^9 cells/ml. A value of 0% and 100% cell lyses, respectively, was determined by incubation of hRBC in the presence of PBS containing 0.001% acetic acid and 2.5% Triton X-100 in H2O, respectively. The samples were centrifuged, the supernatants were 8-fold diluted in PBS buffer and the optical densities (OD) were measured at 540 nm. The 100% lyses value (OD540H2O) gave an OD540 of approximately 0.5-1.0. Percent hemolysis was calculated as follows: (OD540peptide/OD540H2O)×100%.

Structures are written as SMILES. Where a SMILES comes first, the peptide text is derived from it. [ ]: non-standard residue; d: D form. Cha = N[C@@H](CC1CCCCC1)C(=O)O; Chg = N[C@H](C(=O)O)C1CCCCC1; Tle = CC(C)(C)[C@H](N)C(=O)O; dDab = NCC[C@@H](N)C(=O)O; hSer = N[C@@H](CCO)C(=O)O; Orn = NCCC[C@H](N)C(=O)O; Dab = NCC[C@H](N)C(=O)O

In the case of `CC(C)C[C@@H]1NC(=O)[C@@H]2CCCN2C(=O)[C@H]2CCCN2C(=O)[C@H](CO)NC(=O)[C@H](C)NC(=O)[C@H](C(C)(C)C)NC(=O)[C@H](CCN)NC(=O)[C@H](Cc2c[nH]c3ccccc23)NC(=O)[C@H](CCN)NC(=O)[C@@H](CCN)NC(=O)[C@H](CCCN)NC(=O)[C@H](CCN)NC(=O)[C@H](Cc2ccc(O)cc2)NC(=O)[C@H](Cc2c[nH]c3ccccc23)NC1=O` [compound 28, cyclo(-Leu-Trp-Tyr-Dab-Orn-^DDab-Dab-Trp-Dab-tBuGly-Ala-Ser-^DPro-Pro-)] (cyclo(LWY[Dab][Orn][dDab][Dab]W[Dab][Tle]AS[dP]P)), the “Hemolysis at 100 μg/ml” value came out at 1%.

As to `CC(C)C[C@@H]1NC(=O)[C@@H]2CCCN2C(=O)[C@H]2CCCN2C(=O)[C@H](CO)NC(=O)[C@H](CO)NC(=O)[C@H](C(C)(C)C)NC(=O)[C@H](CCN)NC(=O)[C@H](Cc2c[nH]c3ccccc23)NC(=O)[C@H](CCN)NC(=O)[C@@H](CCN)NC(=O)[C@H](CCCN)NC(=O)[C@H](CCN)NC(=O)[C@H](CC2CCCCC2)NC(=O)[C@H](Cc2c[nH]c3ccccc23)NC1=O` [compound 37, cyclo(-Leu-Trp-Cha-Dab-Orn-^DDab-Dab-Trp-Dab-tBuGly-Ser-Ser-^DPro-Pro-)] (cyclo(LW[Cha][Dab][Orn][dDab][Dab]W[Dab][Tle]SS[dP]P)), the “Hemolysis at 100 μg/ml” value is listed as 1%.

Turning to `CC(C)C[C@@H]1NC(=O)[C@@H]2CCCN2C(=O)[C@H]2CCCN2C(=O)[C@H](CO)NC(=O)[C@H](C)NC(=O)[C@H](C2CCCCC2)NC(=O)[C@H](CCN)NC(=O)[C@H](Cc2c[nH]c3ccccc23)NC(=O)[C@H](CCN)NC(=O)[C@@H](CCN)NC(=O)[C@H](CCCN)NC(=O)[C@H](CCN)NC(=O)[C@H](C(C)(C)C)NC(=O)[C@H](Cc2c[nH]c3ccccc23)NC1=O` [compound 34, cyclo(-Leu-Trp-tBuGly-Dab-Orn-^DDab-Dab-Trp-Dab-Chg-Ala-Ser-^DPro-Pro-)] (cyclo(LW[Tle][Dab][Orn][dDab][Dab]W[Dab][Chg]AS[dP]P)), the “Hemolysis at 100 μg/ml” value is given as 1%.

With `C[C@@H]1NC(=O)[C@H](C(C)(C)C)NC(=O)[C@H](CCO)NC(=O)[C@H](Cc2c[nH]c3ccccc23)NC(=O)[C@H](CCN)NC(=O)[C@@H](CCN)NC(=O)[C@H](CCCN)NC(=O)[C@H](CCN)NC(=O)[C@H](Cc2ccc(O)cc2)NC(=O)[C@H](Cc2c[nH]cn2)NC(=O)[C@H](Cc2c[nH]c3ccccc23)NC(=O)[C@@H]2CCCN2C(=O)[C@H]2CCCN2C(=O)[C@H](CO)NC1=O` [Ex. 1, cyclo(-Trp-His-Tyr-Dab-Orn-^DDab-Dab-Trp-Hse-tBuGly-Ala-Ser-^DPro-Pro-)] (cyclo(WHY[Dab][Orn][dDab][Dab]W[hSer][Tle]AS[dP]P)), the “Hemolysis at 100 μg/ml” value was determined as 1%.

For the compound `C[C@@H]1NC(=O)[C@H](C2CCCCC2)NC(=O)[C@H](CCN)NC(=O)[C@H](Cc2c[nH]c3ccccc23)NC(=O)[C@H](CCN)NC(=O)[C@@H](CCN)NC(=O)[C@H](CCCCN)NC(=O)[C@H](CCN)NC(=O)[C@H](CC2CCCCC2)NC(=O)[C@H](Cc2c[nH]c3ccccc23)NC(=O)[C@H](Cc2c[nH]c3ccccc23)NC(=O)[C@@H]2CCCN2C(=O)[C@H]2CCCN2C(=O)[C@H](CO)NC1=O` [compound 10, cyclo(-Trp-Trp-Cha-Dab-Lys-^DDab-Dab-Trp-Dab-Chg-Ala-Ser-^DPro-Pro-)] (cyclo(WW[Cha][Dab]K[dDab][Dab]W[Dab][Chg]AS[dP]P)), the “Hemolysis at 100 μg/ml” value was 1%.

As for `CC(C)C[C@@H]1NC(=O)[C@@H]2CCCN2C(=O)[C@H]2CCCN2C(=O)[C@H](CO)NC(=O)[C@H](C)NC(=O)[C@H](C(C)(C)C)NC(=O)[C@H](CCN)NC(=O)[C@H](Cc2c[nH]c3ccccc23)NC(=O)[C@H](CCN)NC(=O)[C@@H](CCN)NC(=O)[C@H](CCCCN)NC(=O)[C@H](CCN)NC(=O)[C@H](Cc2ccc(O)cc2)NC(=O)[C@H](Cc2c[nH]cn2)NC1=O` [compound 25, cyclo(-Leu-His-Tyr-Dab-Lys-^DDab-Dab-Trp-Dab-tBuGly-Ala-Ser-^DPro-Pro-)] (cyclo(LHY[Dab]K[dDab][Dab]W[Dab][Tle]AS[dP]P)), the “Hemolysis at 100 μg/ml” value was 0%.

Consider `CC(C)C[C@@H]1NC(=O)[C@@H]2CCCN2C(=O)[C@H]2CCCN2C(=O)[C@H](CO)NC(=O)[C@H](C)NC(=O)[C@H](C(C)(C)C)NC(=O)[C@H](CCN)NC(=O)[C@H](Cc2c[nH]c3ccccc23)NC(=O)[C@H](CCN)NC(=O)[C@@H](CCN)NC(=O)[C@H](CCCN)NC(=O)[C@H](CCN)NC(=O)[C@H](Cc2c[nH]c3ccccc23)NC(=O)[C@H](Cc2c[nH]c3ccccc23)NC1=O` [compound 27, cyclo(-Leu-Trp-Trp-Dab-Orn-^DDab-Dab-Trp-Dab-tBuGly-Ala-Ser-^DPro-Pro-)] (cyclo(LWW[Dab][Orn][dDab][Dab]W[Dab][Tle]AS[dP]P)), for which the “Hemolysis at 100 μg/ml” value was 0%.

Regarding `CC(C)C[C@@H]1NC(=O)[C@@H]2CCCN2C(=O)[C@H]2CCCN2C(=O)[C@H](CO)NC(=O)[C@H](C)NC(=O)[C@H](C2CCCCC2)NC(=O)[C@H](CCN)NC(=O)[C@H](Cc2c[nH]c3ccccc23)NC(=O)[C@H](CCN)NC(=O)[C@@H](CCN)NC(=O)[C@H](CCCN)NC(=O)[C@H](CCN)NC(=O)[C@H](Cc2ccc(O)cc2)NC(=O)[C@H](Cc2c[nH]cn2)NC1=O` [compound 23, cyclo(-Leu-His-Tyr-Dab-Orn-^DDab-Dab-Trp-Dab-Chg-Ala-Ser-^DPro-Pro-)] (cyclo(LHY[Dab][Orn][dDab][Dab]W[Dab][Chg]AS[dP]P)), the “Hemolysis at 100 μg/ml” value came out at 3%.

Regarding `C[C@@H]1NC(=O)[C@H](C(C)(C)C)NC(=O)[C@H](CCN)NC(=O)[C@H](Cc2c[nH]c3ccccc23)NC(=O)[C@H](CCN)NC(=O)[C@@H](CCN)NC(=O)[C@H](CCCCN)NC(=O)[C@H](CCN)NC(=O)[C@H](CC2CCCCC2)NC(=O)[C@H](Cc2c[nH]c3ccccc23)NC(=O)[C@H](Cc2c[nH]c3ccccc23)NC(=O)[C@@H]2CCCN2C(=O)[C@H]2CCCN2C(=O)[C@H](CO)NC1=O` [Ex. 11, cyclo(-Trp-Trp-Cha-Dab-Lys-^DDab-Dab-Trp-Dab-tBuGly-Ala-Ser-^DPro-Pro-)] (cyclo(WW[Cha][Dab]K[dDab][Dab]W[Dab][Tle]AS[dP]P)), the “Hemolysis at 100 μg/ml” value is 1%.
